Source: ChEMBL document CHEMBL2069187, “2-Amino-1,3,4-thiadiazole derivative (FABT) inhibits the extracellular signal-regulated kinase pathway and induces cell cycle arrest in human non-small lung carcinoma cells” (Bioorg Med Chem Lett, 2012)
Activity calls are given as the source filed them. No cut-off for these calls is given here.

What was measured:
[1] = test system: A549; assay: Effect on p21Waf1/Cip1 protein expression in human A549 cells at 1 to 100 uM after 24 hrs by Western blot analysis; format: functional, cell-based
[2] = Antiproliferative activity against human skin fibroblast
[3] = molecular target: T1, Mitogen-activated protein kinase; ERK1/ERK2 (Homo sapiens) (UniProt P27361+P28482); assay: Inhibition of PMA-stimulated ERK1/2 phosphorylation in human A549 cells after 24 hrs by Western blot analysis; format: cell-based
T1 sequence (P27361 whole entry, looked up): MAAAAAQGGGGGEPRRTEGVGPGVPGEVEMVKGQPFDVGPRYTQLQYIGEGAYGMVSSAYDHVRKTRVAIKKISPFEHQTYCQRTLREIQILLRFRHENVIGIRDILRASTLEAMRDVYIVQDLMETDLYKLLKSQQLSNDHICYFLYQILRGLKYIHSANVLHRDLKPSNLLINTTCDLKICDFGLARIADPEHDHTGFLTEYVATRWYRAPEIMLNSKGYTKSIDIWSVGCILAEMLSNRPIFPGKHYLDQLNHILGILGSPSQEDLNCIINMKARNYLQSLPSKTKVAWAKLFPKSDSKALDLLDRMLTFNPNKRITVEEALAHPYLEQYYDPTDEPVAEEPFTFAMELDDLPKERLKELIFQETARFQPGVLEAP
T1 sequence (P28482 whole entry, looked up): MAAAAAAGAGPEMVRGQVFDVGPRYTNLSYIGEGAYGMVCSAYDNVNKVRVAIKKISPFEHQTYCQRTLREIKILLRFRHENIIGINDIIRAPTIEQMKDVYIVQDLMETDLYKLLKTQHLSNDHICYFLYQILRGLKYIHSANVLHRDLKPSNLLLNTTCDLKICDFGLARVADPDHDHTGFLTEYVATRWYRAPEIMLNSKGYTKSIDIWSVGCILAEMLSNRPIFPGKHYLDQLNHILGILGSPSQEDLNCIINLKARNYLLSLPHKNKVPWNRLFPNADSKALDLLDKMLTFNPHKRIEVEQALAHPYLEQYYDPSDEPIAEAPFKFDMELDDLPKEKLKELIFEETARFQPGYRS

[4] = test system: A549; assay: Inhibition of CREB phosphorylation in human A549 cells after 24 hrs by Western blot analysis; format: cell-based
[5] = test system: A549; assay: Cell cycle arrest in human A549 cells after 24 hrs by acridine orange staining-based flow cytometry; format: functional
[6] = test system: Rhabdomyosarcoma cell; assay: Antiproliferative activity against human rhabdomyosarcoma cells; format: functional, cell-based
[7] = molecular target: T1, Mitogen-activated protein kinase; ERK1/ERK2 (Homo sapiens); assay: Inhibition of ERK1/2 phosphorylation in human A549 cells after 24 hrs by Western blot analysis; format: cell-based
[8] = test system: Medulloblastoma cell; assay: Antiproliferative activity against human medulloblastoma cells; format: functional
[9] = test system: A549; assay: Effect on CREB1 gene expression in human A549 cells at 5 to 25 uM after 24 hrs by RT-PCR analysis; format: functional, cell-based
[10] = test system: A549; assay: Cell cycle arrest in human A549 cells assessed as accumulation at G0/G1 phase at 10 uM after 24 hrs by acridine orange staining-based flow cytometry (Rvb =44.85 +/- 0.866 %); format: functional
[11] = molecular target: Dual specificity mitogen-activated protein kinase kinase; MEK1/2 (Homo sapiens) (UniProt P36507+Q02750); assay: Inhibition of MEK1/2 phosphorylation in human A549 cells after 24 hrs by Western blot analysis; format: cell-based
Dual specificity mitogen-activated protein kinase kinase; MEK1/2 (Homo sapiens), sequence (P36507 whole entry, looked up): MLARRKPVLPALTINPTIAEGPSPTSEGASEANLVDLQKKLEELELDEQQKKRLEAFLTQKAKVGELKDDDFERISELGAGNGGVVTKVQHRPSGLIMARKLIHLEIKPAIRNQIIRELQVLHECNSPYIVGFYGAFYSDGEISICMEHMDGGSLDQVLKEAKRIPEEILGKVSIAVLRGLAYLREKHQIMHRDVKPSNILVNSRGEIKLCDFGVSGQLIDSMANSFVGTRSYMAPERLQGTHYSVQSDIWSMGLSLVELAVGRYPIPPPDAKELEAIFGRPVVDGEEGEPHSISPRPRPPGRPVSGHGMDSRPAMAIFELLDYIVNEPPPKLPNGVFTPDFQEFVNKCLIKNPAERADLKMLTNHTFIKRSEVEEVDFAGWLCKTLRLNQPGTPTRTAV
Dual specificity mitogen-activated protein kinase kinase; MEK1/2 (Homo sapiens), sequence (Q02750 whole entry, looked up): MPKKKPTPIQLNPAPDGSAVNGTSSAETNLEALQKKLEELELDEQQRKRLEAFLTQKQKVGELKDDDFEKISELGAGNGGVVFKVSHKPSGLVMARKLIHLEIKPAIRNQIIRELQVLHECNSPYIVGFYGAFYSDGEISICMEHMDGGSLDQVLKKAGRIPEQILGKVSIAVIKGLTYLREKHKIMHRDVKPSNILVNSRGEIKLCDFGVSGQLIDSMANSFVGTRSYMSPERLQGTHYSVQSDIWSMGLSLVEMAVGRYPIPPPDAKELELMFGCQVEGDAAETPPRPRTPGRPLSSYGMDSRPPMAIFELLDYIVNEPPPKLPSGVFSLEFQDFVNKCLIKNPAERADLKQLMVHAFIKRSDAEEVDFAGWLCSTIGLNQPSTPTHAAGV

[12] = test system: A549; assay: Cell cycle arrest in human A549 cells assessed as accumulation at S phase at 50 uM after 24 hrs by acridine orange staining-based flow cytometry (Rvb =26.89 +/- 2.997 %); format: functional
[13] = Antiproliferative activity against human astrocytes; format: cell-based; conditions: astrocyte
[14] = test system: A549; assay: Cell cycle arrest in human A549 cells assessed as accumulation at G0/G1 phase at 25 uM after 24 hrs by acridine orange staining-based flow cytometry (Rvb =44.85 +/- 0.866 %); format: functional
[15] = test system: A549; assay: Cell cycle arrest in human A549 cells assessed as accumulation at S phase at 25 uM after 24 hrs by acridine orange staining-based flow cytometry (Rvb =26.89 +/- 2.997 %); format: functional
[16] = molecular target: T1, Mitogen-activated protein kinase; ERK1/ERK2 (Homo sapiens); assay: Inhibition of ERK1/2 phosphorylation in human A549 cells assessed as peak effect time by Western blot analysis; format: cell-based
[17] = test system: A549; assay: Effect on total ERK1/2 levels in human A549 cells by Western blot analysis in presence of PMA; format: functional, cell-based
[18] = species: Homo sapiens; assay: Antiproliferative activity against human lung adenocarcinoma cells; format: functional
[19] = species: Homo sapiens; assay: Antiproliferative activity against human neuroblastoma cells; format: functional, cell-based
[20] = test system: A549; assay: Effect on ERK1 gene expression in human A549 cells at 5 to 25 uM after 24 hrs by RT-PCR analysis; format: functional, cell-based
[21] = test system: A549; assay: Effect on cyclinD1 protein expression in human A549 cells at 1 to 100 uM after 24 hrs by Western blot analysis; format: functional, cell-based
[22] = species: Homo sapiens; assay: Antiproliferative activity against human colon adenocarcinoma cells; format: functional
[23] = test system: A549; assay: Cell cycle arrest in human A549 cells assessed as accumulation at G2/M phase at 50 uM after 24 hrs by acridine orange staining-based flow cytometry (Rvb =16.66 +/- 0.622 %); format: functional
[24] = test system: Hepatocyte; assay: Antiproliferative activity against human hepatocytes; format: cell-based
[25] = test system: A549; assay: Cell cycle arrest in human A549 cells assessed as accumulation at S phase at 10 uM after 24 hrs by acridine orange staining-based flow cytometry (Rvb =26.89 +/- 2.997 %); format: functional
[26] = test system: A549; assay: Effect on p27/Kip protein expression in human A549 cells at 1 to 100 uM after 24 hrs by Western blot analysis; format: functional, cell-based
[27] = test system: A549; assay: Inhibition of Rsk90 phosphorylation in human A549 cells after 24 hrs by Western blot analysis; format: cell-based
[28] = test system: A549; assay: Cell cycle arrest in human A549 cells assessed as accumulation at G2/M phase at 10 uM after 24 hrs by acridine orange staining-based flow cytometry (Rvb =16.66 +/- 0.622 %); format: functional
[29] = test system: Glioma cell; assay: Antiproliferative activity against human glioma cells; format: functional, cell-based
[30] = test system: A549; assay: Cell cycle arrest in human A549 cells assessed as accumulation at G2/M phase at 25 uM after 24 hrs by acridine orange staining-based flow cytometry (Rvb =16.66 +/- 0.622 %); format: functional
[31] = test system: A549; assay: Effect on total ERK1/2 levels in human A549 cells by Western blot analysis; format: functional, cell-based
[32] = test system: A549; assay: Cell cycle arrest in human A549 cells assessed as accumulation at G0/G1 phase at 50 uM after 24 hrs by acridine orange staining-based flow cytometry (Rvb =44.85 +/- 0.866 %); format: functional
[33] = molecular target: T1, Mitogen-activated protein kinase; ERK1/ERK2 (Homo sapiens); assay: Inhibition of ERK1/2 phosphorylation in human A549 cells at 25 uM by Western blot analysis; format: cell-based; conditions: TDE = time-dependent effect

Structure (SMILES): Oc1ccc(-c2nnc(Nc3ccc(F)cc3)s2)c(O)c1
- Activity [1]: inactive
- Activity [2]: Non-toxic
- inhibition [3]: Dose-dependent effect
- inhibition [4]: Active
- Activity [5]: Dose-dependent effect
- Activity [6]: Active
- inhibition [7]: Dose-dependent effect
- Activity [8]: Active
- Activity [9]: inactive
- Activity [10]: 43.4%
- inhibition [11]: Active
- Activity [12]: 11.31%
- Activity [13]: Non-toxic
- Activity [14]: 46.97%
- Activity [15]: 19.84%
- TIME [16]: 24 h
- Activity [17]: inactive
- Activity [18]: Active
- Activity [19]: Active
- Activity [20]: inactive
- Activity [21]: inactive
- Activity [22]: Active
- Activity [23]: 5.403%
- Activity [24]: Non-toxic
- Activity [25]: 22.62%
- Activity [26]: inactive
- inhibition [27]: Active
- Activity [28]: 12.89%
- Activity [29]: Active
- Activity [30]: 11.03%
- Activity [31]: inactive
- Activity [32]: 57.4%
- inhibition [33]: tde
